Laboratory results: patent US12297210B2, “Naphthyridine compounds and uses thereof” (Genentech, Inc., priority 2018, dated 2025)

Key:
[1] = molecular target: T1, HPK full length, T165E S171E (Homo sapiens, UniProt Q92918, S171E/T165E); test: HPK1-FL HTRF Enzymatic Assay ("HTRF"); assay type: biochemical; details: ATP 1 mM, read-out: HPK1 Ki (nM) H = HTRF
T1 construct: HPK full length, T165E S171E: 0.125 nM
Description: Example B1: HPK1-FL HTRF Enzymatic Assay (“HTRF”)
HPK-FL enzyme phosphorylates Biotin-SLP-76 substrate in the presence of ATP at 1 mM and varying concentrations of test compound. Product is detected by FRET using Eu-anti-pSLP76 Ab and SA-XL665. Also see www.cisbio.com/HTRF for additional HTRF technology information.
• Echo555 compound dispenser • Agilent Bravo • Perkin Elmer Envision Final Assay Conditions: • HPK full length, T165E S171E: 0.125 nM • Biotin-SLP76: 100 nM • ATP: 1 mM (ATP Km=20 μM) • Eu-anti-pSLP76: 2 nM • SA-XL665: 8.3 nM • Preincubation time: 30 min • Kinase reaction time: 60 min • Temperature: ambient • Total volume: 12 μl • ATP^app Km: 17.7 μM Materials: • Assay plate: White ProxiPlate 384 F (PerkinElmer cat #6008289) • Kinase: HPK full length double mutant • Substrate: Biotin-SLP76 • ATP: 100 mM ATP • BSG: 2% BSG • DMSO: DMSO(Sigma cat #34869-100ML) • Reaction Buffer: H2O/50 mM HEPES, pH 7.5/10 mM MgCl2/2 mM TCEP/0.01% Brij-35/0.01% BSG • Detection mix: Eu-anti-pSLP76/SA-XL665 (Cisbio, #610SAXAC) Assay Procedure Ki Determination:
To a 384 well Proxiplate with 80 nL compound or DMSO spotted on was added 4 μl/well kinase mix. The mixture was preincubated for 30 minutes and then 4 μl/well substrate mix was added. The solution was incubated for 60 min and then 4 μl/well detection mix was added. The solution was incubated for another 60 min. The plates were then loaded onto a Perkin Elmer Envision and the TR-FRET signal was measured at 615 and 665 nm. A ratio of […] was used to calculate the % activity at each concentration of compound.

[2] = test system: primary human pan T cells; test: Human T-Cell IL2 Induction Assay; assay type: cell-based; details: assayed concentration 0.31 μM; anti-CD3/anti-CD28 stimulated primary human pan T cells
Description: Example B3: Human T-Cell IL2 Induction Assay
Anti-CD3 and anti-CD28 activates TCR signaling in primary human pan T cells leading to IL-2 promoter induction. Secreted IL-2 in cell culture supernatant is detected by electrochemiluminescence using a capture antibody against IL-2 and an anti-IL-2 antibody labeled with SULFO-tag.
Incubate primary human pan T cells with varying concentrations of test compounds for 30 minutes in a humidified incubator at 37° C. and 5% CO2. Transfer cells to a plate pre-coated with a fixed concentration of anti-human CD3 (determined separately for each donor lot) and add soluble anti-human CD28 (final concentration=1 μg/ml). Stimulate cells in a humidified incubator at 37° C. and 5% CO2 for 4 hours. Transfer 25 μl of supernatant to a MSD single spot plate pre-coated with an anti-human IL-2 antibody. Incubate MSD plate overnight at 4° C. with gentle shaking. Wash MSD plate 4× with wash buffer. Add SULFO-tagged detection antibody at a 1:50 dilution and incubate at room temperature shaking for 2 hours. Wash MSD plate 4× with wash buffer and add 150 μl 2×MSD read buffer. Read on an MSD instrument. […]
Exemplary compounds of Formula (I) were tested in the human T-cell IL-2 induction assays. The % increase measured for IL-2 in cells treated by the test compounds relative to untreated cells are provided in Table B2 for certain compounds.

HPK1 = molecular target: T2, HPK1 (Homo sapiens, UniProt Q92918); test: HPK1 Lantha Binding Assay ("Lanth"); details: 15 nM Tracer222, read-out: HPK1 Ki (nM) L = Lanth
T2 construct: purchased Signalchem M23-11G
T2 sequence (Q92918 1-346 limits assumed): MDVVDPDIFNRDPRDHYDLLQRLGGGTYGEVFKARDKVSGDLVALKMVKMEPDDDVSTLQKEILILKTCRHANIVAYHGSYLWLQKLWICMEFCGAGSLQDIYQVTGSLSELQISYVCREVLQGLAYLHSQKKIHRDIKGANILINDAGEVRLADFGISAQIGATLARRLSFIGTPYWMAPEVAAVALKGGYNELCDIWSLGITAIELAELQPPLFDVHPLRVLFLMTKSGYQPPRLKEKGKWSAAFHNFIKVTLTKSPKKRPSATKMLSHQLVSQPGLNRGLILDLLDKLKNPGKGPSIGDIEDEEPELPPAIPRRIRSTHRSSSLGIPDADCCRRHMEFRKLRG
Description: Example B2: HPK1 Lantha Binding Assay (“Lanth”)
The compounds to be tested were diluted by preparing 12.5 uL/well of 5 mM compound (100×) in columns 2 and 13 and 10 ul/well of DMSO in columns 3-12, 14-23, and wells A1-H1 and I24-P24 of the compound plate using a Bravo liquid handling platform. For the reference compound, the top concentration was 1 mM. To the plate was added 10 ul 2 mM staurosporine in wells J1-P1 and A24-H24. A 11 point 5-fold compound serial dilution was performed using the Bravo liquid handling platform. From the plate were transferred 2.5 ul of the solutions from column 2 and column 13 to the 10 ul of DMSO in columns 3 and 14 & so on. The compound plate was centrifuged at 2500 rpm for 1 min. From the compound plate was transferred 80 nl of the compounds into an assay plate using the Echo liquid handler system. One compound plate makes two assay plates. Each assay plate is sealed and stored in an N2 cabinet.
The following assay concentrations and times were used: 2 nM HPK1, 2 nM Eu-Anti-GST Ab, and 15 nM Tracer222, with 60 min incubation time.
For the binding assay, 4 ul 2×HPK1 and Eu-anti-GST antibody were added to each well of the assay plate using a Multidrop reagent dispenser. The solutions were incubated in a 23 C incubator for 1 h. To each well of the assay plate was added 4 ul 2×Tracer-222 using a Multidrop reagent dispenser. The solutions were again incubated in a 23 C incubator for 1 h. The results of the assay were read using an Envision plate reader with the following parameters: TR_FRET, 340ex/615 and 665em; 100 usec Delay; and 200 usec integration.
Compound Ki was analyzed using Morrison ki fit model in XL-fit • a. fit=(1−((((E+x)+(Ki*(1+(S/Kd))))−(((((E+x)+(Ki*(1+(S/Kd))))^2)−((4*E)*x))^0.5))/(2*E))) • res=(y-fit) • b. Parameters: • E=enzyme concentration • S=Tracer222 concentration, Kd=Tracer222 Kd • All measurements reported using the same units (uM)

T1 sequence (Q92918 whole entry T165E/S171E): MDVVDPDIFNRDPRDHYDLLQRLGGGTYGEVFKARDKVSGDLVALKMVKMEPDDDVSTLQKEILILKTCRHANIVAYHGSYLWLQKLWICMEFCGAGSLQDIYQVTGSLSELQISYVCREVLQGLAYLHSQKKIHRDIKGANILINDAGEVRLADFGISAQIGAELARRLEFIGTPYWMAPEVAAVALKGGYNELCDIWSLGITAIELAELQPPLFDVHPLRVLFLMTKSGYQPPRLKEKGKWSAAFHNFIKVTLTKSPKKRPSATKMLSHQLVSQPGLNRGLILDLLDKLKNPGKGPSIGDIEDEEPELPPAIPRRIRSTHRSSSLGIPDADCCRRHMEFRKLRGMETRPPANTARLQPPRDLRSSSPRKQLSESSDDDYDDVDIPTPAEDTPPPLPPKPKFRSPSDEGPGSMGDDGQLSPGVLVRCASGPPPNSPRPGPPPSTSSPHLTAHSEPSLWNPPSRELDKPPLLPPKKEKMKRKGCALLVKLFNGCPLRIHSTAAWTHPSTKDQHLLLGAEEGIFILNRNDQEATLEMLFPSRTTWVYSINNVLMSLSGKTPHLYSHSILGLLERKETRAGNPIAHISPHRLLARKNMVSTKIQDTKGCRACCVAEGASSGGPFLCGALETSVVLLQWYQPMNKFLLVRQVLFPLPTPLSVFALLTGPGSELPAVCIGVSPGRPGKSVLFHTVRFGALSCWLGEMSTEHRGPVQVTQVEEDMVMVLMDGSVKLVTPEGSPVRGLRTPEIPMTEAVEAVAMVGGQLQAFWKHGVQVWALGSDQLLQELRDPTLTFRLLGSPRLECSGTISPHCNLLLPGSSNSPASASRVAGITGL

Compound | Ki [1] | % IL-2 increase relative to untreated cells [2] | Ki (HPK1)
Cc1c(N)cncc1-c1cc2cc(Nc3cc4n(n3)CC(=O)N(C)CC43CC3)ncc2c(C)n1 [Compound 101, 2′-((6-(5-amino-4-methylpyridin-3-yl)-8-methyl-2,7-naphthyridin-3-yl)amino)-6′-methyl-5′,6′-dihydrospiro[cyclopropane-1,4′-pyrazolo[1,5-d][1,4]diazepin]-7′(8′H)-one] | 0.27 nM | 421% | –
Cc1c(-c2cc3cc(Nc4cc5n(n4)CC(=O)N(C(C)C)CC5)ncc3cn2)cnc2c1NCCO2 [Compound 103, 6-isopropyl-2-((6-(8-methyl-2,3-dihydro-1H-pyrido[2,3-b][1,4]oxazin-7-yl)-2,7-naphthyridin-3-yl)amino)-5,6-dihydro-4H-pyrazolo[1,5-d][1,4]diazepin-7(8H)-one] | – | – | 0.39 nM
Cc1ccncc1-c1cc2cc(Nc3ccc(C(=O)N(C)C)cn3)ncc2cn1 [Compound 204, N,N-dimethyl-6-((6-(4-methylpyridin-3-yl)-2,7-naphthyridin-3-yl)amino)nicotinamide] | – | – | 24 nM
CNS(=O)(=O)c1ccc(Nc2cc3cc(-c4cnccc4C)ncc3cn2)nc1 [Compound 207, N-methyl-6-((6-(4-methylpyridin-3-yl)-2,7-naphthyridin-3-yl)amino)pyridine-3-sulfonamide] | – | – | 11 nM
Cc1ccncc1-c1cc2cc(Nc3ccc(CCO)cn3)ncc2cn1 [Compound 208, 2-(6-((6-(4-methylpyridin-3-yl)-2,7-naphthyridin-3-yl)amino)pyridin-3-yl)ethan-1-ol] | – | – | 28 nM
Cc1cc(Nc2cc3cc(-c4cnccc4C)ncc3cn2)nc(N)n1 [Compound 210, 6-methyl-N^4-(6-(4-methylpyridin-3-yl)-2,7-naphthyridin-3-yl)pyrimidine-2,4-diamine] | – | – | 3.9 nM
